According to patent publication US20220306640A1, “HYDANTOIN DERIVATIVE” (ONO PHARMACEUTICAL CO., LTD., priority 2019, published 2022):
pIC50: −log10 of the molar value.

Legend:
[1] = target: KDR (Homo sapiens, UniProt P35968); assay: Evaluation of kinase selectivity: % inhibition rate of KDR at 1 μmol/L; type: biochemical; conditions: compound at 1 μmol/L
Experimental: (§1) Biological Example 3: Evaluation of Kinase Selectivity
(§2) % inhibition rate with respect to various kinases (for example KDR etc.) of 1 μmol/L the test compound is measured.
(§3) A general assay condition (substrates, cofactor, ATP concentrations and reaction time etc.) suitable for respective kinase enzyme inhibition activity test is used.
(§4) 1 Prepare the test compounds into 1 mmol/L DMSO solution. 2 Transfer 20 nL of stock to 384 assay plate. Use DMSO as High and Low controls.
(§5) 1 Prepare the 1.3× Enzyme solution containing enzyme, substrate and cofactors. 2 Add 15 μL of 1.3× Enzyme solutions to each well and incubate the plate at room temperature for 30 min. 3 Initiate the reaction by adding 5 μL of 4×ATP solution. The final volume of each well should be 20 μL. 4 Incubate the plate at room temperature for reaction and add 75 μL of stopping buffer (containing 0.5 mol/L EDTA) to terminate the reaction.
(§6) Analyze the sample of each well using EZ reader (PerkinElmer).
(§7) Calculate the % Inhibition using read conversion ratio (CR) following the equation as below.
(§8) Use well treated with DMSO as High Control Use well without enzyme as Low Control

[2] = target: T1, DDR1 phosphorylation in T-47D (ATCC, HTB-133) cells (Homo sapiens, UniProt Q08345); assay: Measurement of DDR1 phosphorylation suppression rate by using T-47D cells (p-DDR1 ELISA); type: cell-based; conditions: collagen Type I 10 μg/ml, p-DDR1 (panTyr) ELISA
T1 construct: host or cells: T-47D
T1 sequence (Q08345 19-913): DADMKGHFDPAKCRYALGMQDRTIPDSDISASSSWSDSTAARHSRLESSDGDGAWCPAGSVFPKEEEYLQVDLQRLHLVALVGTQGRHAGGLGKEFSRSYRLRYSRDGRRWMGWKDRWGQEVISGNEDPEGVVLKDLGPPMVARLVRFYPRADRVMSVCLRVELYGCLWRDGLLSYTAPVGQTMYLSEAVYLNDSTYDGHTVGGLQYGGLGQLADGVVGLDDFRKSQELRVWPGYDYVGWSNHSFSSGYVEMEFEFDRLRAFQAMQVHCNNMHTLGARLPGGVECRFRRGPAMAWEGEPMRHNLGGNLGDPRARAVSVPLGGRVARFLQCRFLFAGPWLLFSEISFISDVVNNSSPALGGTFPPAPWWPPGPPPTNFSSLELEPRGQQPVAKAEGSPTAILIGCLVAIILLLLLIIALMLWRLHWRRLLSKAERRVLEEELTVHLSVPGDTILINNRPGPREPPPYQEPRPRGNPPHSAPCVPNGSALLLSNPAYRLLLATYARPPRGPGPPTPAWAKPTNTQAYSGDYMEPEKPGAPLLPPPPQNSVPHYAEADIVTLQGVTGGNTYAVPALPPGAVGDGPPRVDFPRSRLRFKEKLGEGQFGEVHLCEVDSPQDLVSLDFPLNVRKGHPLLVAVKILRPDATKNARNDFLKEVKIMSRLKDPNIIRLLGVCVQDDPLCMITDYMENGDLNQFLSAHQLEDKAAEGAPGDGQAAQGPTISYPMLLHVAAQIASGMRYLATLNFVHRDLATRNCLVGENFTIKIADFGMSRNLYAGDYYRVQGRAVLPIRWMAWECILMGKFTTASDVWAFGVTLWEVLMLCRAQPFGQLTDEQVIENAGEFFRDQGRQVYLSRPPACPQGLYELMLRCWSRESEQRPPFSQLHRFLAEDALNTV
Experimental: Biological Example 2: Measurement of DDR1 Phosphorylation Suppression Rate by Using T-47D (ATCC, HTB-133) cells
T-47D cells should be in culture for at least 7 days before using in the assay.
Cell culture medium: RPMI 1640 (HyClone) containing 10% Heat-FBS (HyClone) was prepared.
Assay medium: RPMI 1640 containing 0.1% BSA (solarbio) was prepared.
Collagen Type I (rat tail) solution: Assay medium containing 200 μg/mL Collagen I, rat tail (Gibco) was prepared.
Cell lysis buffer: a solution containing IX cell lysis buffer (CST) and 1× protease and phosphatase inhibitor cocktail (Thermofisher) was prepared by using ddH2O.
• 1. Collect cells into tubes and centrifuge at 1200 rpm for 5 min, at room temperature. Re-suspend the cells in cell culture medium pre-warmed to room temperature. • 2. Count cells and suspend at a density of 2×10^5/ml of cell culture medium. Plate the cells at 100 μL per well (Corning 3599 96-well plate, 2×10^4 cells per well final), mixing the cells well between each draw of the pipettor. • 3. Put lid on cell plate and place into the incubator at 37° C., 5% CO2 • 4. Culture cell overnight
• 1. Remove the plate from the incubator • 2. Cell medium is replaced with the 90 μL Assay medium.
• 1. Compound plates are pre-titrated using DMSO (10-fold dilution for 6 points) • 2. Dilute test compound using assay medium; Transfer 1 μL compound to other 96 well plate and then add 49 μL assay medium to each well (50 fold dilution). • 3. Add 5 μL the diluted test compound solution to the appropriate wells by pipettor. Compound final concentration is start from […] and DMSO final concentration is 0.1 • 4. Tap the plates gently to mix in compound. Reseal the plate with a lid and place in the incubator again, for 24 h.
• 1. Diluted collagen Type I in assay medium to the 200 μg/ml concentration • 2. Using the pipettor adds 5 μL of 200 μg/mL collagen Type I solution to the cell plate (compound well and High control well, collagen final conc. is 10 μg/ml). Add assay medium buffer to the control wells (low control well) • 3. Reseal the plate with a lid and place in the incubator. Incubate 24 h for collagen type I
• 1. After incubation, add 100 µL per well Cell lysis buffer. • 2. Incubate 30 min on ice, then freezing to −80° C. to get the fully cell lysates. • 3. Transfer cell lysates to new plate • 4. Centrifuge for 30 min (×4000 rpm) at 4° C. Then transfer the supernatant to a new plate.
p-DDR1 (panTyr) ELISA kit (CST) was used in the study. The measurement was carried out according to the attached instruction.
(§9) The inhibition rate (%) in the test compound group was calculated based on the following mathematical formula.
% inhibition=100−100*(assay value of test compound−A)/(B−A) [Math. 2]
A: average value of low control group B: average value of high control group Values of 50% inhibition rate (IC50 values) of the test compound were calculated from the inhibition curve based on the inhibition rate of the test compounds in each concentration.

[3] = target: T2, Flt-3 (Homo sapiens, UniProt P36888); assay: Evaluation of kinase selectivity: % inhibition rate of Flt-3 at 1 μmol/L; type: biochemical; conditions: compound at 1 μmol/L
T2 sequence (P36888 27-993): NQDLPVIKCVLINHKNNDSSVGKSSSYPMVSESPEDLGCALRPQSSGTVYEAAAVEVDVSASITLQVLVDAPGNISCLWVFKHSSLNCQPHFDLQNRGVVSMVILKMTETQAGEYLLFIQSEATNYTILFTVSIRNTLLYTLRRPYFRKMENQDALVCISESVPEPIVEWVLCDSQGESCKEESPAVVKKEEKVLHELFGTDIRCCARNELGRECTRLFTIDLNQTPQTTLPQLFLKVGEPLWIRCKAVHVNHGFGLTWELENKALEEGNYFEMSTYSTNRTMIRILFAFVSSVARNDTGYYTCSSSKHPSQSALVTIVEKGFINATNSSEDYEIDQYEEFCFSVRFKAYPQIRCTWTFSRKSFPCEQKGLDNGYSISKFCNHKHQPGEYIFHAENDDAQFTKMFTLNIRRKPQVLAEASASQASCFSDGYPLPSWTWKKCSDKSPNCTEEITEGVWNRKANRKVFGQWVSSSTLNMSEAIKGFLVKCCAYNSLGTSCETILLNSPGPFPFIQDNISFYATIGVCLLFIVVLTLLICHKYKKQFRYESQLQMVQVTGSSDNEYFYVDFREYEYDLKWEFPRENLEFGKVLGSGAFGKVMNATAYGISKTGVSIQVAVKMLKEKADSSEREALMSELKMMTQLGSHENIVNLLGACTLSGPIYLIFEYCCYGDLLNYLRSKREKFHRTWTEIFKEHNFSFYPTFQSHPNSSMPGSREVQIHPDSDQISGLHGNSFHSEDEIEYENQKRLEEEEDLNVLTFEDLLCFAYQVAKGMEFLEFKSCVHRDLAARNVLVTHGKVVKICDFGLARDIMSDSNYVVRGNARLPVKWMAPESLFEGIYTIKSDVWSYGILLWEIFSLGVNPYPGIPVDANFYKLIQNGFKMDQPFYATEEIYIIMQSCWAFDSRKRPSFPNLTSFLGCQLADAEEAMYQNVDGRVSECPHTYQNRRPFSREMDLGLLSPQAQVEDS
Experimental: as §1, §2, §3, §4, §5, §6, §7, §8

[4] = target: T3, DDR1 (Homo sapiens, UniProt Q08345); assay: Measurement of DDR1 inhibitory activity (LanthaScreen system, in vitro test); type: binding; conditions: GST-DDR1, Kinase tracer 178
T3 construct: purchased Invitrogen
T3 sequence (Q08345 19-913): as the sequence (Q08345 19-913) above
Experimental: Biological Experiment Example 1: Measurement of an DDR1 Inhibitory Activity (In Vitro Test)
An DDR1 enzyme inhibitory activity was measured by using LanthaScreen (registered trademark) system (Invitrogen) based on the attached instruction. The reagents used are shown below.
Assay buffer: 5× Kinase buffer A (Invitrogen) was diluted 5-fold with ddH2O.
1× Kinase Buffer A: 50 mmol/L HEPES pH 7.5, 10 mmol/L MgCl2, 1 mmol/L EGTA, 0.01% Brij-35.
2×DDR1 Solution: a solution containing […] GST-DDR1 (Invitrogen) was prepared by using Assay buffer.
2× Tracer/antibody solution: a solution containing 20 nmol/L Kinase tracer 178 (Invitorgen) and […] Eu-Anti-GST Antibody (Invitorogen) was prepared by using Assay buffer. Test compound solution: a solution containing a test compound of 2-fold concentration with respect to the final concentration was prepared by 50-fold diluting a DMSO solution of test compound of each concentration with the Assay buffer.
• 1 Add 5 μL 2×DDR1 Solution to proxiplate (PerkinElmer) • 2 Add 5 μL test compound solution to proxiplate • 3 Incubate for 15 min at RT • 4 Add 5 μL 2× Tracer/Antibody solution to all well Incubate 1 h at RT • 6 Read LANCE Eu on Envision (PerkinElmer) (Ex: 320 nm/Em 665 nm & 615 nm)
In the low control group, 5 μL Assay buffer was added instead of 5 μL 2×DDR1 Solution and the final 1% DMSO solution was added instead of test compound solution.
In the high control group, the final 1% DMSO solution was added instead of test compound solution.
as §9
% inhibition=100−100*(assay value of test compound−A)/(B−A) [Math. 1]
A: average value of low control group B: average value of high control group
Values of 50% inhibition rate (IC50 values) of the test compound were calculated from the inhibition curve based on the inhibition rate of the test compounds in each concentration.

[5] = target: ROCK (Homo sapiens, UniProt O75116); assay: Evaluation of kinase selectivity: % inhibition rate of ROCK at 1 μmol/L; type: biochemical; conditions: compound at 1 μmol/L; read-out: % inhibition rate of ROCK2
ROCK, sequence (O75116 whole entry): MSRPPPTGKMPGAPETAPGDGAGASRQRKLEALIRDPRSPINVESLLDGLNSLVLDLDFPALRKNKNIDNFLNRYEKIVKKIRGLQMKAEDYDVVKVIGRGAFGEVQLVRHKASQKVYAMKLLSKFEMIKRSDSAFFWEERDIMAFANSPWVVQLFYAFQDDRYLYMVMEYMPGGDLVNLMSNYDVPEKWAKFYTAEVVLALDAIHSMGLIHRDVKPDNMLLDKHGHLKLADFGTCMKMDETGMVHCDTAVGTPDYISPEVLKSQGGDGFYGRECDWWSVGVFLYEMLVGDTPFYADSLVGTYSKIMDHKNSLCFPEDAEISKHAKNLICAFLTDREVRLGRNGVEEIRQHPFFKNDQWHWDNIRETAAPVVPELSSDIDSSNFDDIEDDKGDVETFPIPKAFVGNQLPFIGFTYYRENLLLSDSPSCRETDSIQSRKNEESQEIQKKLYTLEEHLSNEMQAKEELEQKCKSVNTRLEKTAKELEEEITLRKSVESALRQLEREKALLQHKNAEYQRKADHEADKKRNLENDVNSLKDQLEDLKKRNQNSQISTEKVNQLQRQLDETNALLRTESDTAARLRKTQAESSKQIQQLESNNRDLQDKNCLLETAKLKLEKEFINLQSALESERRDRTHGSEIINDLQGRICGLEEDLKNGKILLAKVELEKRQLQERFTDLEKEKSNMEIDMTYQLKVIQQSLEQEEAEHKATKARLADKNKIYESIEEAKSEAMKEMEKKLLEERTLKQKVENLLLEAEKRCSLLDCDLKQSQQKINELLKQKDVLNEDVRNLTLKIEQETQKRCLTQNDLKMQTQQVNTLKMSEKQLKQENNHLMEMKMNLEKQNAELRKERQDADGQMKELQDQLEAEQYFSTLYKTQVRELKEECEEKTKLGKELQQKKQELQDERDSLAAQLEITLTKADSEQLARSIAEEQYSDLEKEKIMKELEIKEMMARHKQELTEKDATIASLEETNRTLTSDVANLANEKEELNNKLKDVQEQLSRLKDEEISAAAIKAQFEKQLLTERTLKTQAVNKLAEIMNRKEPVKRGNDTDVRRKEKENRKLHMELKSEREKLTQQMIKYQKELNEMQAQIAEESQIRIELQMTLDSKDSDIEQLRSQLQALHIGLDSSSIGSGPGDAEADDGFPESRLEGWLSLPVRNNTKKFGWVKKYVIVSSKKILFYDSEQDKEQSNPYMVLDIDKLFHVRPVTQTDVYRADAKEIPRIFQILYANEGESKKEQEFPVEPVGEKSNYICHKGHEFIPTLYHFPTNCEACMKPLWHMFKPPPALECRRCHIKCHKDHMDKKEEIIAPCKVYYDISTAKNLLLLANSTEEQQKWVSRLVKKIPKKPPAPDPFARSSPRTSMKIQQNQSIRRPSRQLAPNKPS
Experimental: as §1, §2, §3, §4, §5, §6, §7, §8

KDR, sequence (P35968 20-1356, species assumed): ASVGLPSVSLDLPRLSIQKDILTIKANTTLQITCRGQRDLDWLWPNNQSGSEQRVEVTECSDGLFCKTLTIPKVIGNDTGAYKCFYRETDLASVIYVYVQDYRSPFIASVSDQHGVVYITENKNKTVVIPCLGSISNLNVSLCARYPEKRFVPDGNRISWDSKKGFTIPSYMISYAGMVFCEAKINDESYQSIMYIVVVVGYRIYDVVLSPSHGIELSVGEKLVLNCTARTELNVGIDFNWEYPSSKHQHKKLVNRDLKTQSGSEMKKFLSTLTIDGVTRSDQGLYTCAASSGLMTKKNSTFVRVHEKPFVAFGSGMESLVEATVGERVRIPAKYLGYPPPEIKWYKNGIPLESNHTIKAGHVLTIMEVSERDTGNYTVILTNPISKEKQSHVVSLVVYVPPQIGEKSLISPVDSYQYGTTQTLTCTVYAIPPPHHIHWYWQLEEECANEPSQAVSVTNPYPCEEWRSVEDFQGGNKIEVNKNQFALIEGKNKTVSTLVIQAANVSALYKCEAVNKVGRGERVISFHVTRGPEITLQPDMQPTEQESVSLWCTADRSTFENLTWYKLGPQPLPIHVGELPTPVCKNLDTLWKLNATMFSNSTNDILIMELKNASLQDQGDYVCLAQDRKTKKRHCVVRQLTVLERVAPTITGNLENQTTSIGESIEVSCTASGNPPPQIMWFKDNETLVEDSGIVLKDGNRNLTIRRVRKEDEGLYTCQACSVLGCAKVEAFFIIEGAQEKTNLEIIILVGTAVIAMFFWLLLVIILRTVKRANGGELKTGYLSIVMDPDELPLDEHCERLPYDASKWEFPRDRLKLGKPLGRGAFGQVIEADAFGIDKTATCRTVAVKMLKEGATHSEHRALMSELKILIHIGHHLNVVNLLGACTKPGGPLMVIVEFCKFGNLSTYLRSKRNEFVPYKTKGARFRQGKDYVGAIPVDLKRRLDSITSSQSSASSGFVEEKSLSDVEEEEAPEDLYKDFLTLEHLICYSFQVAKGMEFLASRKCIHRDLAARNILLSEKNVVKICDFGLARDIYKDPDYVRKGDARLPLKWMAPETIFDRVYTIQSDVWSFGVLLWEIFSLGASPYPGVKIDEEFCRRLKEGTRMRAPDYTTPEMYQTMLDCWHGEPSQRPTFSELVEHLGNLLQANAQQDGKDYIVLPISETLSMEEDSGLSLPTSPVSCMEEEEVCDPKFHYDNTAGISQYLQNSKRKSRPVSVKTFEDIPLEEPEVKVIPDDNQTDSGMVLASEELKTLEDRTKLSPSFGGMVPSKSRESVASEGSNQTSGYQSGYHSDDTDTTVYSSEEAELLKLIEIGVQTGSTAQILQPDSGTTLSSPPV

Row | inhibition at 1 µM [1] [%] | pIC50 [2] | inhibition at 1 µM [3] [%] | pIC50 [4] | inhibition at 1 µM [5] [%] | Structure (SMILES)
1 | 2 | 9.00 | 16 | 9.00 | -2 | O=C1CN(c2cncc(C(F)(F)F)c2)C(=O)N1c1ccc(Oc2cnc3[nH]ncc3c2)cc1 [Example 1(11), 3-[4-(1H-pyrazolo[3,4-b]pyridin-5-yloxy)phenyl]-1-[5-(trifluoromethyl)-3-pyridinyl]-2,4-imidazolidinedione]
2 | -1 | 8.70 | 5 | 8.52 | 5 | O=C1CN(c2cncc(C(F)(F)F)c2)C(=O)N1C12CCC(Oc3ncnc4[nH]ccc34)(CC1)C2 [Example 3(65), 3-[4-(7H-pyrrolo[2,3-d]pyrimidin-4-yloxy)bicyclo[2.2.1]hept-1-yl]-1-[5-(trifluoromethyl)-3-pyridinyl]-2,4-imidazolidinedione]
3 | 1 | 8.52 | 4 | 8.30 | -5 | Cc1cc(Oc2ccnc(N)n2)ccc1N1C(=O)CN(c2cncc(C(F)(F)F)c2)C1=O [Example 2, 3-{4-[(2-amino-4-pyrimidinyl)oxy]-2-methylphenyl}-1-[5-(trifluoromethyl)-3-pyridinyl]-2,4-imidazolidinedione]
4 | -3 | 8.10 | -2 |  | -8 | O=C1CN(c2cncc(C(F)(F)F)c2)C(=O)N1C12CCC(Oc3ncnc4[nH]cc(F)c34)(CC1)C2 [Example 42(1), 3-{4-[(5-fluoro-7H-pyrrolo[2,3-d]pyrimidin-4-yl)oxy]bicyclo[2.2.1]hept-1-yl}-1-[5-(trifluoromethyl)-3-pyridinyl]-2,4-imidazolidinedione]
